The target of one assay is Galanin receptor type 3 (Homo sapiens, UniProt O60755). Briefly: Fluorescence-based cell-based primary high throughput dose response assay to identify antagonists of the Galanin Receptor 3 (GalR3). Format: functional.
The next assay in a line: cells. Format: functional, cell-based. As to conditions: HEK-CNG.
Assay [1] addresses T1, Short transient receptor potential channel 4 (Mus musculus, UniProt Q9QUQ5).
T1 sequence (Q9QUQ5 whole entry): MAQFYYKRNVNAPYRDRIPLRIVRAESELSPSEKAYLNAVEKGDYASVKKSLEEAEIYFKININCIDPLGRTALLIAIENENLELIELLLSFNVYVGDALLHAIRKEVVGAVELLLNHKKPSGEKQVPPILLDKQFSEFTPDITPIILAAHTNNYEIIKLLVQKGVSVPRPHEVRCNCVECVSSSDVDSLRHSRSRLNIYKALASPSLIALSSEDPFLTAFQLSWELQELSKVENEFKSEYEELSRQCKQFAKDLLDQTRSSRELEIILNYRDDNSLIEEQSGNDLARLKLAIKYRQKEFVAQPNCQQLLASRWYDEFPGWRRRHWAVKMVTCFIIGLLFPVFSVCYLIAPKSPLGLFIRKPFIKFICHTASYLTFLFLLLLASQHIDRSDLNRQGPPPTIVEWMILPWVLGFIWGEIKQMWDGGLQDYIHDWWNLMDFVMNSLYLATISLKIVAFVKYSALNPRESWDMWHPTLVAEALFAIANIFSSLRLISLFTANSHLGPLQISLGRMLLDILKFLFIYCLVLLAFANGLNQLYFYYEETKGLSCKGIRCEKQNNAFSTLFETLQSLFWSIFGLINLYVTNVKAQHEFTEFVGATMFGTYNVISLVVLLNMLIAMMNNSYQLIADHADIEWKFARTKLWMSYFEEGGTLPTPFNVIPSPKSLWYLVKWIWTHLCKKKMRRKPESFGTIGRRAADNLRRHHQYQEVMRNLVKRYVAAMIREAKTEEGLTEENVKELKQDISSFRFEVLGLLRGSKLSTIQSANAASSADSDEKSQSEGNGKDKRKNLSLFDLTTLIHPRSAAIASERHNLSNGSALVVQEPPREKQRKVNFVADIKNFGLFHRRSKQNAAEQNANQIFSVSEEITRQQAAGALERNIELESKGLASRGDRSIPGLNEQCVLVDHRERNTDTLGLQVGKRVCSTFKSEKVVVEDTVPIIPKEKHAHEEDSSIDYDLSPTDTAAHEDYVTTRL
Briefly: calcium entry via TRPC4 opening agents – cell-based, HEK293 TRPC4/mu-opioid, Fluo-4 calcium, dose response (AID 434937). In kind it is functional.

Assay [2] deals with Neuropeptide Y receptor type 1 (Homo sapiens, UniProt P25929). Put plainly: IC50 of human NPY-Y1 blockers – cell-based, dose response (AID 1277). In kind it is functional.
Neuropeptide Y receptor type 1, sequence (P25929 whole entry): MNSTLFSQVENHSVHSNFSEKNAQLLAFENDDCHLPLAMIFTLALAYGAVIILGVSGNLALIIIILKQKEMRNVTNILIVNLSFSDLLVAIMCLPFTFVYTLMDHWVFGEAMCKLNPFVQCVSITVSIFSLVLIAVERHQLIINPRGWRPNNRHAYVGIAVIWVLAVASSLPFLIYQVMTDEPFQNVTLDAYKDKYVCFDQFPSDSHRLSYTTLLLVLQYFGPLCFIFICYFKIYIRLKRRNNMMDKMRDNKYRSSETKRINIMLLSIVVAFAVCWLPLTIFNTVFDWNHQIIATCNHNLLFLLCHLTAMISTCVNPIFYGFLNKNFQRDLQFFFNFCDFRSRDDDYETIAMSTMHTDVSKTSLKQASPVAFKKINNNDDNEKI
In assay [3] the target is Neuropeptide Y receptor type 2 (Homo sapiens, UniProt P49146). Put plainly: IC50 for human NPY-Y2 blockade – cell-based, counter-screen for NPY-Y1 antagonist project, dose response (AID 1278). In kind it is functional. A general note: A counterscreen serves to expose hits that act by an unwanted route or on another target.
Neuropeptide Y receptor type 2, sequence (P49146 whole entry): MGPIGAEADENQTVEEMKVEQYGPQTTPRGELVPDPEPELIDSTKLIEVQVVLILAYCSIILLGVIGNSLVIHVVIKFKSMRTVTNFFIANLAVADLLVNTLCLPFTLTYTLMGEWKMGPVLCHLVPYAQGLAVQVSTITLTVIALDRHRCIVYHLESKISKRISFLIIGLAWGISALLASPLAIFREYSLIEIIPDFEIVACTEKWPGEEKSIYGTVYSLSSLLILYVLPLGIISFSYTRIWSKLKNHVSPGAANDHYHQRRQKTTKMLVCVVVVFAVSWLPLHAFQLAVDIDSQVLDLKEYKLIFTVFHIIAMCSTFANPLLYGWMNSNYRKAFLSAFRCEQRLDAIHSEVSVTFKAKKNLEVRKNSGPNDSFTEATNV
The target in assay [4] is Lytic switch protein BZLF1 (Epstein-Barr virus (strain B95-8) (HHV-4) (Human herpesvirus 4), UniProt P03206). Put plainly: inhibition of BZLF1 ZTA DNA binding – biochemical, fluorescence polarization, Epstein-Barr virus, 1536-well, counter-screen for EBNA-1 inhibitor project, dose response (AID 2377).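 Also: fluorescence polarization of Cy5-labelled ZRE DNA probe bound by purified Zta.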 Also on record: species or system human gammaherpesvirus 4. (In general: Polarisation of emitted light reports the rotation of a fluorescent probe.)
Lytic switch protein BZLF1, sequence (P03206 whole entry): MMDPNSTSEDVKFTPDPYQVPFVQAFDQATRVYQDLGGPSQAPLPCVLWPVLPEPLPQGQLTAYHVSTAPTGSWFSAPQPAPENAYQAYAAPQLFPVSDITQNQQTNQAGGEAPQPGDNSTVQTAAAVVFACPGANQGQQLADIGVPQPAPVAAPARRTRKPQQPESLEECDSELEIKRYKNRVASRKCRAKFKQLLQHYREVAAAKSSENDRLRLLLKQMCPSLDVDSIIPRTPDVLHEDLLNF

For assay [5], the target named is Epstein-Barr nuclear antigen 1 (Epstein-Barr virus (strain B95-8) (HHV-4) (Human herpesvirus 4), UniProt P03211). Briefly: inhibition of EBV nuclear antigen 1 DNA binding – biochemical, fluorescence polarization, 1536-well, dose response (AID 2381).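 Also: fluorescence polarization of a Cy5 DNA probe bound by EBNA-1 protein.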 Set-up: species or system human gammaherpesvirus 4.
Epstein-Barr nuclear antigen 1, sequence (P03211 whole entry): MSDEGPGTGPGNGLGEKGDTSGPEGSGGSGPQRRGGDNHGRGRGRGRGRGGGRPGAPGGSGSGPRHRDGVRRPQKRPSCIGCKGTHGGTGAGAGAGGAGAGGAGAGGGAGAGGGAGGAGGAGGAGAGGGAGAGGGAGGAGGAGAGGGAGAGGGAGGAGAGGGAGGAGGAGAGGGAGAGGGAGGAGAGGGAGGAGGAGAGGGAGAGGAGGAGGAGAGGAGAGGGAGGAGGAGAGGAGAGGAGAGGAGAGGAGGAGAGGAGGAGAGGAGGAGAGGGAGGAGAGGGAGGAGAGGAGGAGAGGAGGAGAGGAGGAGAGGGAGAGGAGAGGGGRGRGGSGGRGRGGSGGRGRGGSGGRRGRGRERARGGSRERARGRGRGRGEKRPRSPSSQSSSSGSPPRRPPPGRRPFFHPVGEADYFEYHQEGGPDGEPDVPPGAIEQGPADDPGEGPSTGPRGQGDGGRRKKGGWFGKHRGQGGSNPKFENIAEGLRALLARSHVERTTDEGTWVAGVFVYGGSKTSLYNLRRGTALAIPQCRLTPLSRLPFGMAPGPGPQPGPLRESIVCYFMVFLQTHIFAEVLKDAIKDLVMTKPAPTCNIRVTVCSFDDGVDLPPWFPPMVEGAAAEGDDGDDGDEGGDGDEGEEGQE
Assay [6] concerns the target Transitional endoplasmic reticulum ATPase (Homo sapiens, UniProt P55072, C522A). Put plainly: Luminescence counterscreen assay for p97 inhibitors: dose response biochemical high throughput screening assay to identify inhibitors of the C522A mutant p97 ATPase: synthesized compounds. [Related pubchem assays: 1481, 1517, 1551 ].
In assay [7] the target is Transitional endoplasmic reticulum ATPase (Homo sapiens, UniProt P55072). Briefly: Luminescence dose response biochemical high throughput screening assay for inhibitors of the p97 ATPase: synthesized compounds. [Related pubchem assays: 1481, 1517 ].
Transitional endoplasmic reticulum ATPase (Homo sapiens, UniProt P55072), sequence (P55072 whole entry): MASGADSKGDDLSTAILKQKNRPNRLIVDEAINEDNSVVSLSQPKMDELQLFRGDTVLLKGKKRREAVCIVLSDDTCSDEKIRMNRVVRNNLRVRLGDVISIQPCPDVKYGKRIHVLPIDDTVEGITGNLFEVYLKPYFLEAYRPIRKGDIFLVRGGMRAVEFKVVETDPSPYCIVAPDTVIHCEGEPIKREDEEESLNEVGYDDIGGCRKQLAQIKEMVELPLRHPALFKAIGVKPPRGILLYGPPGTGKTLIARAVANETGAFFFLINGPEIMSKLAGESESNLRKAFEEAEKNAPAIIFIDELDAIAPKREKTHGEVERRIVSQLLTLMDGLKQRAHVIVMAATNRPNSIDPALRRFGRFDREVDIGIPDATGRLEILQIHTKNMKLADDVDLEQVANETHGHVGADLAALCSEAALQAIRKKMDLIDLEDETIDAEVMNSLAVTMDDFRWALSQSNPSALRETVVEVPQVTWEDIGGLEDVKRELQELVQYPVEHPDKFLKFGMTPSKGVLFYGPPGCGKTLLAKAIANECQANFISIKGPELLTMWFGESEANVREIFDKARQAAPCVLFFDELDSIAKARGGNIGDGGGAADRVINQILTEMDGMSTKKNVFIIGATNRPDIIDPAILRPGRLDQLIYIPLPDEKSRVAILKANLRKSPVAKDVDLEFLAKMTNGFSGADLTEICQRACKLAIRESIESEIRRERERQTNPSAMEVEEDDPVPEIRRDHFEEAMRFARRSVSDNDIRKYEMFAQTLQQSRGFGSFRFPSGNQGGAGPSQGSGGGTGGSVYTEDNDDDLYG
In assay [8] the target is Photoreceptor-specific nuclear receptor (Homo sapiens, UniProt Q9Y5X4). Briefly: ligands suppressing NR2E3 nuclear receptor activity – biochemical, TR-FRET, dose response (AID 463256). Format: functional. Background: TR-FRET usually uses a lanthanide donor and a delayed reading to cut background.
Photoreceptor-specific nuclear receptor, sequence (Q9Y5X4 whole entry): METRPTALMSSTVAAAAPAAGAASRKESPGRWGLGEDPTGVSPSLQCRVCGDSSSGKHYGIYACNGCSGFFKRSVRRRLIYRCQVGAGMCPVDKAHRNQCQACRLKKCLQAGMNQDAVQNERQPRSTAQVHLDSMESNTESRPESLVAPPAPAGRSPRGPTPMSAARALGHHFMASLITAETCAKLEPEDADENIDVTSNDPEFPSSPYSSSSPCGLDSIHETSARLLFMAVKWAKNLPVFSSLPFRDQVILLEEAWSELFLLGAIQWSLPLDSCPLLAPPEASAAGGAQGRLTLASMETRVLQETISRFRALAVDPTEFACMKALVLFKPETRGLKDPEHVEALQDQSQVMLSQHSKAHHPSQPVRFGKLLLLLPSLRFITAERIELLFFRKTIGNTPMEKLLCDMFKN
In assay [9] the target is Peroxisome proliferator-activated receptor gamma/Nuclear receptor corepressor 2 (Homo sapiens, UniProt P37231+Q9Y618). Put plainly: Counterscreen for NR2E3 inverse agonists: TR-FRET-based biochemical high throughput dose response assay to identify inverse agonists of the interaction between peroxisome proliferator-activated receptor gamma (PPARg) and nuclear receptor co-repressor 2 (NCOR2). In kind it is functional.

Assay [10] is described as follows: inhibition of ADAM10 peptide cleavage – biochemical, FRET peptide substrate, recombinant human ADAM10, selectivity assay for ADAM17 exosite inhibitor project, dose response (AID 743259).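 Also: ADAM10 enzyme cleaving a FRET peptide substrate.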
Assay [11] concerns the target Luciferin 4-monooxygenase (Photinus pyralis, UniProt P08659). Briefly: inhibition of purified Photinus pyralis luciferase – biochemical, luminescence, dose response (AID 1891).
The nature of assay [12]: antibacterial activity against E. coli NEB5alpha – luminescence, counter-screen for MEX-5/POS-1 RNA-binding inhibitor project, dose response (AID 1959). In kind it is functional.
The target of assay [13] is Disintegrin and metalloproteinase domain-containing protein 17 (Homo sapiens, UniProt P78536). Put plainly: exosite inhibitors of ADAM17, dose response, biochemical (AID 743260).
Disintegrin and metalloproteinase domain-containing protein 17, sequence (P78536 whole entry, the tested form may be a part): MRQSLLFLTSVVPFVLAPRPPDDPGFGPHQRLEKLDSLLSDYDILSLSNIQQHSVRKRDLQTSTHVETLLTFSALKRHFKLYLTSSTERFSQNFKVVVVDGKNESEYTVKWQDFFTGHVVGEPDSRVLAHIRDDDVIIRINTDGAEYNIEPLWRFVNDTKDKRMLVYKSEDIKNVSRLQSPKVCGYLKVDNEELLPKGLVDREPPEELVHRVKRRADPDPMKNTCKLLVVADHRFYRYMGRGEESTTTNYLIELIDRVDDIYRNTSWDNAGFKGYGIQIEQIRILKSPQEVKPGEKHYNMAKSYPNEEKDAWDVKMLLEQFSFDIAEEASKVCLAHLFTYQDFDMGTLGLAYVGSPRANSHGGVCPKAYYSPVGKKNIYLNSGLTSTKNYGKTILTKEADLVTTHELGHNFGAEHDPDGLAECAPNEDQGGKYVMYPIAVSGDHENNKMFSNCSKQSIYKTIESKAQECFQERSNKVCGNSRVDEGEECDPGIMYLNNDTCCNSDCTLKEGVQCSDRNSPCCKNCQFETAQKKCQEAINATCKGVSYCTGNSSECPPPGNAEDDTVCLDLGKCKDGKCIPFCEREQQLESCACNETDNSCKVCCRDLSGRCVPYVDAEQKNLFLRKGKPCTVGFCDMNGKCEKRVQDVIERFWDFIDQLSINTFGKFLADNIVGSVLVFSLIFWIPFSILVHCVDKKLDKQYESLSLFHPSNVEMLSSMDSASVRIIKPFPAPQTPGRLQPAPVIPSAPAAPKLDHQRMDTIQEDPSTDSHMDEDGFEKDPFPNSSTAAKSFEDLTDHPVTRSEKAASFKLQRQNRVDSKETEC
A short description of assay [14]: mitochondrial function rescue without frataxin homolog – Friedreich's ataxia, plus single-dose screen, dose response (AID 1465).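 Also: yeast depleted of Yfh1p frataxin homolog grown on glycerol needing respiration; WST-1 tetrazolium dye reduction as measure of cellular dehydrogenase metabolic activity.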 In kind it is functional.
Assay [15] concerns the target T2, RNA-binding protein pos-1 (Caenorhabditis elegans, UniProt G5EF15).
T2 sequence (G5EF15 whole entry): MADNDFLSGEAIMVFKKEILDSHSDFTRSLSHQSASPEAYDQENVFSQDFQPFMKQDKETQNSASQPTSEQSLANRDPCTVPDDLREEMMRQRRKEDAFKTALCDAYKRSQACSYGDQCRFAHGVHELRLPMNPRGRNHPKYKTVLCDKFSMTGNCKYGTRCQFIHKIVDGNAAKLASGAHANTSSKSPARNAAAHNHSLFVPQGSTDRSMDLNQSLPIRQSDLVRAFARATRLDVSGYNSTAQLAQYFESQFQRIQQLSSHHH
Put plainly: disruptors of C. elegans POS-1 RNA interaction – biochemical, fluorescence polarization, dose response (AID 1964).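 Also: purified POS-1 fused to maltose binding protein made in E. coli; potency of compounds blocking POS-1 binding to fluorescent RNA.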

Assay [16] can be described thus: Luminescence Cell-Based Dose Confirmation HTS to Identify Inhibitors of Platelet Dense Granule Release. [Related pubchem assays: 1663 (Primary HTS), 1678 (Summary of Project)]. Format: functional.

Active and inactive are the calls of the source.

Galanin receptor type 3, sequence (O60755 whole entry): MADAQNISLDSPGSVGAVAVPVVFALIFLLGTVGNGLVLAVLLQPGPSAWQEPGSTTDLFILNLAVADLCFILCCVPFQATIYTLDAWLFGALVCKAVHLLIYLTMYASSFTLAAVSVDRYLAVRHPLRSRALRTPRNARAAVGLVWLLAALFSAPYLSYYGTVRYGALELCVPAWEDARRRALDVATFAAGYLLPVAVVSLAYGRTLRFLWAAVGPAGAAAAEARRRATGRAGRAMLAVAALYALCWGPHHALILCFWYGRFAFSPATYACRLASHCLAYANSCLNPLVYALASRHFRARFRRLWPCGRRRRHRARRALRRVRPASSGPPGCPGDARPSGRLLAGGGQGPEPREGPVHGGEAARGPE
Luciferin 4-monooxygenase, sequence (P08659 whole entry): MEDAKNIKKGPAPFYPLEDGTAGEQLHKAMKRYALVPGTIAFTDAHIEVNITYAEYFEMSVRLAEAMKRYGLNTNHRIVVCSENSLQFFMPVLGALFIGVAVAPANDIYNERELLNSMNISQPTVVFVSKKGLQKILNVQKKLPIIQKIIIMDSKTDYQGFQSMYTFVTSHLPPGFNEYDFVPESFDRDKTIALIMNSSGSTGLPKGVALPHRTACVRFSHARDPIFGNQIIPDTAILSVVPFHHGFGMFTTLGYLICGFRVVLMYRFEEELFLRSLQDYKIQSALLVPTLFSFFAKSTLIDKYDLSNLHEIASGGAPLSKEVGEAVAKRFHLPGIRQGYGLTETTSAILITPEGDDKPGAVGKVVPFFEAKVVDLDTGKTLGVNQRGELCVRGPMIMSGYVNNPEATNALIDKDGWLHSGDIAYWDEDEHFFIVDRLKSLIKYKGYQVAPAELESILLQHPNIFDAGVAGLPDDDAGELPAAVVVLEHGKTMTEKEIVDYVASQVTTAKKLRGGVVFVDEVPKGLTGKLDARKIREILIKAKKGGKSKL

In general, IC50 refers to the concentration that inhibits the measured activity by half. A word on the EC50: it is the midpoint of the concentration-response curve. `CC(=O)OCC[N+](C)(C)C`: the IC50 at Galanin receptor type 3 was 1.66 µM (active); in assay [2] it was > 35 µM (not active); in [3], > 35 µM (not active). Further, the EC50 was > 29.9 µM (inactive) in “cells” and 0.0667 µM (active) in [1].
As to `COC(=O)c1ccc2nc(NC(=O)CCS(=O)(=O)c3ccccc3)sc2c1`, the values for the IC50 in [4] and in assay [5] were > 111 µM (not active) and 39 µM (not active), respectively.
As to `CCOC(=O)/C(C#N)=C/c1ccc([N+](=O)[O-])cc1`, the IC50 in [6] and in assay [7] was > 50 µM (not active) each time.
Take `CCCS(=O)(=O)N1CCC(C(=O)NCCCN(CC)c2cccc(C)c2)CC1`: the half-maximal inhibitory concentration (IC50) in assay [8] and in assay [9] was > 4.43 µM (active) each time.
Consider `CCOc1ccc(N/N=C2/C(=O)Nn3c2nc(C)cc3=O)cc1`, for which the IC50 is 24.7 µM (inactive) in [10] and > 69.5 µM (inactive) in assay [13]. Further, the concentration for a half-maximal effect (EC50) in [11] was 0.535 µM (active); in assay [12] it was 16.2 µM (active); in assay [14], > 100 µM (active); in assay [15] it was 213 µM (active); in assay [16] it was 9.37 µM (active).
